Test results: patent US6627211B1, “Transnasal anticonvulsive compositions and modulated process” (SK Corporation, priority 1999, dated 2003)

Legend:
[1] = In vitro nasal membrane permeation (glass diffusion cell); conditions: for Mean Transnasal Flux: diazepam, 37° C., n = 2
Excerpt: The nasal mucous membrane used in these in vitro experiments was obtained from New Zealand White rabbits (2.5-3.0 kg). Rabbits were sacrificed by IV injection of phenobarbital. The nasal septum was carefully removed from a bone block using surgical scissors and a bone-cutting saw. Two pieces of nasal mucous membranes were then carefully stripped from the nasal septum without touching the center of the membrane surface and rinsed with normal saline solution. The mucosal membrane was mounted between two half-cells of a glass diffusion cell apparatus. The exposed area of the nasal membrane was approximately 0.64 cm^2. A test solution or suspension (3.5 ml) was introduced into the mucosal side of the membrane in the donor compartment while 3.5 ml of 10% ethanol, 40% propylene glycol, and 50% pH 7.4 isotonic phosphate buffer solution was added to the receptor compartment. The entire diffusion system was maintained at 37° C. throughout the experiment. At predetermined time intervals, 100 μl of the receptor solution was withdrawn for the assay and refilled with the same volume of fresh receptor medium to keep the volume constant. The steady-state flux value was determined from the slope of the straight line attained from the plot of the cumulative amount of drug permeated as a function of time. Each experiment was carried out in at least duplicate.
A high pressure liquid chromatographic system equipped with a multi-solvent delivery system (Model 600E, Waters Associates, Milford, Mass.), an auto-injector (Model 717 Plus, Waters Ass.), a photodiode array detector (Model 996, Waters Ass.), a reverse phase Symmetric C18 column (150 mm ×3.9 mm ID, 5 μm), and a Millenium 2010 software computer system was used in this study.
In these studies, a series of bile salts such as sodium cholate, sodium deoxycholate, sodium taurocholate, and sodium glycocholate, and a lecithin such as lysophosphatidylcholine were examined. The permeation rates were measured using the method described under the in vitro membrane permeation test method.
The permeation rates were determined utilizing the method described in Example 1.
The in vitro membrane permeation rates were measured using the test method described in Example 1.
Sample drug solutions (10 mg/ml) were prepared with the vehicle with and without the bile salt. The membrane permeation rates were measured in the use of the test method described in Example 1.
The in vitro permeation experiments were performed using the test method described in Example 1.

[2] = dogs, after the nasal administration; cited from earlier work
[3] = Bioavailability and pharmacokinetics of (S)-2-carbamoyloxyl-1-o-chlorophenylethanol preparations after IV and IN administration; assay type: in vivo; conditions: rabbits
Method: A formulation for IV injection was prepared by dissolving 15 mg (S)-2-carbamoyloxyl-1-o-chlorophenylethanol in 1 mL of 40% PEG 400 and 60% water and filtering through a sterile membrane filter under aseptic conditions. The formulations were administered to rabbits (n=2-4) at the two dosing levels of 2.5 mg/kg and 5 mg/kg in a manner analogous to that described in Example 7. A repeated dosing regimen at 5 minute intervals was also studied in the nasal application of the preparation of the invention. […] To the plasma sample, 50 μl of an internal standard solution (2-(2,6-dichlorophenyl)-2-carbamoyloxyethyl)oxocarboxamide-10 μg/ml) and 5 ml of methyl-butyl ether were added. The mixture was vortexed for 60 seconds and centrifuged at 3500 rpm for 10 minutes. […] The residue was reconstituted with 200 μl of deionized water. The (S)-2-carbamoyloxyl-1-o-chlorophenylethanol concentration in the plasma was determined by HPLC in the use of a mobile phase consisting of 20% acetonitrile and 80% water with a flow rate of 1 ml/minute and UV detection at 210 nm. The detection limit for (S)-2-carbamoyloxyl-1-o-chlorophenylethanol was 23 nmol/l. The pharmacokinetic parameters determined after IV and IN administration of (S)-2-carbamoyloxyl-1-o-chlorophenylethanol at two dose strengths are presented in Table VIII. […]

[4] = Bioavailability and pharmacokinetics of clonazepam preparations after IV and IN administration; conditions: rabbits
Method: The formulations were administered to rabbits (n=3) at a dose of 0.2 mg/kg in a manner analogous to those described in Example 7. A repeated dosing regimen (double and triple applications) at 5 minutes time intervals was also tested. Blood samples were obtained from the ear vein at the following time intervals: 0, 2, 5, 10, 20, 30, 45, 60, and 120 minutes. From the blood samples, plasma was separated by centrifugation and stored at −20° C. until analysis. For analysis, plasma samples (0.5 ml) were accurately transferred into a 15-ml test tube. […] To the above mixture, 5 ml of diethyl ether was added and this mixture was vortexed for 60 seconds and centrifuged at 4000 rpm for 10 minutes. The upper ethereal solution was transferred to a 5 ml test tube and evaporated in a vacuum evaporator at 40° C. for 30 minutes. The residue was reconstituted with 100 μl of the mobile phase for HPLC analysis consisting of 20% methanol, 30% acetonitrile, and a 50% pH 3.5 KH2PO4/H3PO4 buffer/solution. The clonazepam concentration in the plasma was determined by HPLC using a flow rate of 1 ml/minute and the UV detection at 254 nm. The detection limit for clonazepam was 16 nmol/l.

[5] = vehicle 30% ethanol, 60% propylene glycol, 10% water, initial drug concentration 5mg/ml

For CN1C(=O)CN=C(c2ccccc2)c2cc(Cl)ccc21 [Diazepam, diazepam], the “increase in the steady-state flux when 1% sodium glycocholate is incorporated into the vehicle” value ([1]; 10 mg/ml diazepam in 30% ethanol, 60% propylene glycol, 10% water with vs without 1% SGC (FIG. 3)) was “approximately 50%”, the “Mean Transnasal Flux” value ([1]; vehicle 1% Lysophosphotidylcholine/H2O) was 125.5 μg/cm^2/hr and the “Mean Transnasal Flux” value ([1]; vehicle 1% Sodium Cholate/H2O) was 66.3 μg/cm^2/hr. For the same compound, the “Mean Transnasal Flux” value ([1]; vehicle 1% Sodium Deoxycholate/H2O) was 74.9 μg/cm^2/hr, the “Mean Transnasal Flux” value ([1]; vehicle 1% Sodium Glycocholate/H2O) was 96.4 μg/cm^2/hr and the “Mean Transnasal Flux” value ([1]; vehicle 1% Sodium Taurocholate/H2O) was 87.0 μg/cm^2/hr. The “Mean Transnasal Flux” value ([1]; vehicle Water) was 79.5 μg/cm^2/hr and the “Transnasal Flux” value [1, 5] was 246.0 μg/cm^2/hr.

In the case of Cc1nnc2n1-c1ccc(Cl)cc1C(c1ccccc1Cl)=NC2 [triazolam], the “time to maximum plasma concentration” value [2] is given as 18 min.

With NC(=O)OC[C@@H](O)c1ccccc1Cl [(S)-2-carbamoyloxyl-1-o-chlorophenylethanol] the Papp at 5 mg/ml ([1]; New Zealand White, rabbit) was 27.1 ×10⁻⁶ cm/s, the “Transnasal Flux” value ([1]; New Zealand White, rabbit, 5 mg/ml) was 487.6 μg/cm^2/hr and the “time at which plasma concentration after the second dosing exceeded the plasma level of a single IV injection” value ([3]; IN 5 mg/kg × 2 vs IV 5 mg/kg) was 30 min. For the same compound, the “Cmax and AUC0-240 minutes after the second intranasal application” value ([3]; second IN application 5 minutes after the first dosing, 5 mg/kg × 2) was “doubled”.

For O=C1CN=C(c2ccccc2Cl)c2cc([N+](=O)[O-])ccc2N1 [Clonazepam, clonazepam], the Papp at 5 mg/ml ([1]; New Zealand White, rabbit) was 19.3 ×10⁻⁶ cm/s, the “Transnasal Flux” value [1, 5] was 347.7 μg/cm^2/hr and the “time to initial peak plasma concentration” value ([4]; after the first intranasal application) was no more than 2 min. The “peak plasma level relative to the IV injection” value ([4]; first intranasal application 0.2 mg/kg) was “about 32%” and the “peak plasma concentration after the third application compared with the single IV injection” value ([4]; third IN application at 5 minutes intervals, peak observed at 15 minutes) was “nearly identical”.
